Reference: patent US20180153830A1, “SELECTIVE INHIBITORS OF UNDIFFERENTIATED CELLS” (Yissum Research Development Company of the Hebrew …, priority 2012, published 2018)
pEC50: −log10 of the molar value.

Legend:
Type in all cases: cell-based
[1] = test system: BJ-iPS28 induced pluripotent stem cells; assay: CellTiter-Glo luminescent cell viability screen, BJ-iPS28; details: Homo sapiens; for pEC50: 24 h; for inhibition at 20 µM: pluripotent stem cells
Experimental: (§1) 5,000 CSES2 cells were plated in 50 μl per well of mTeSR1 medium into black 384-well clear-bottom plates (Falcon BD) pre-coated with Matrigel™ using WellMate cell dispenser (Matrix, Hudson, N.H.). 24 hours after plating, medium was replaced with 25 μl of fresh medium and 25 μl of 40 μM compound medium solutions in 1% DMSO from the intermediate compound dilution plates. The plates were incubated at 37° C., in a 5% CO2 atmosphere, for the entire duration of the screen, apart from the time required for liquid handling. Cell viability was determined 24 hours after compound treatment using CellTiter-Glo® luminescent cell viability assay kits. 50 μl of CellTiter-Glo® reagent was added to each well of the assay plates and fully mixed. After incubation at room temperature for 15 minutes, 25 μl of liquid was transferred from each well into a white opaque-bottom 384-well plate (PerkinElmer), and luminescence was measured using an EnVision® plate reader (PerkinElmer). 16 neutral control wells (0.5% DMSO) and 8 positive control wells (5 μM amsacrine hydrochloride were used to normalize the compound effect. All liquid transfer steps were handled with a Biomek® FXP Laboratory Automation Workstation (Beckman Coulter, Fullerton, Calif.) and Muitidrop Combi liquid dispenser (Thermo Fisher, Waltham, Mass.). An Assay Analyzer (Genedata, Basel, Switzerland) was used for data pattern correction and calculation. The Spotfire software (Spotfire, Somerville, Mass.) was used for data illustration.
696 confirmed hits from the confirmation screen were tested for profiling in a panel of 13 different cell types, using the same screening protocol described above (except in the case of embryonic stem cell-derived neural stem cells (NSCs) and mesenchymal stem cells (MSCs), for which the protocol is described below). As discussed below, compounds were tested either in dose-dependent multiple concentration manner or in single concentration manner. CSES2 and CSES2-SO2/3 cell lines and the early endodermal progenitors derived from this cell line (CSES2-SO2/3-differentiated) were screened at 8 concentrations ranging from 50 μM to 23 nM with 1:3 serial dilution steps. […] Cardiomyocytes were screened in one concentration of 20 μM. HeLa and NTERA-2 cell lines were screened in duplicates of 20 μM. Kelly and Huh-7 were screened in triplicates of 20 μM. Hepatocytes were screened in duplicates of 20 μM in the original 96-well plates in which the cells arrived (40,000 cells per well, in 160 μl medium, the volumes of all reagents involved were adjusted accordingly). MSCs and NSCs were screened in duplicates of 12.5 μM.
(§2) The raw intensity data for each well were background-corrected by subtraction of the median intensities across all positive control wells on the same plate, and used to calculate the inhibitory effect of each compound per cell line. A Genedata Assay Analyzer and Condoseo were used for data pattern correction, calculation and IC50 curve fitting. A Z′ factor was determined for each plate.
The effect of the selected compounds on human iPS cells was then determined. […]

[2] = test system: iPS-derived cardiomyocytes; assay: CellTiter-Glo counter-screen, cardiomyocytes; details: Homo sapiens, Cardiomyocyte
Experimental: Human induced pluripotent stem cell-derived cardiomyocytes were obtained from Cellular Dynamics International (Madison, Wis.), and handled according to the manufacturer's instructions;
(§3) 696 confirmed hits from the confirmation screen were tested for profiling in a panel of 13 different cell types, using the same screening protocol described above (except in the case of embryonic stem cell-derived neural stem cells (NSCs) and mesenchymal stem cells (MSCs), for which the protocol is described below). As discussed below, compounds were tested either in dose-dependent multiple concentration manner or in single concentration manner. CSES2 and CSES2-SO2/3 cell lines and the early endodermal progenitors derived from this cell line (CSES2-SO2/3-differentiated) were screened at 8 concentrations ranging from 50 μM to 23 nM with 1:3 serial dilution steps. BJ-iPS28 cell line and the BJ fibroblasts from which it was derived were screened at 6 concentrations ranging from 50 μM to 200 nM with 1:3 serial dilution steps. Cardiomyocytes were screened in one concentration of 20 μM. HeLa and NTERA-2 cell lines were screened in duplicates of 20 μM. Kelly and Huh-7 were screened in triplicates of 20 μM. Hepatocytes were screened in duplicates of 20 μM in the original 96-well plates in which the cells arrived (40,000 cells per well, in 160 μl medium, the volumes of all reagents involved were adjusted accordingly). MSCs and NSCs were screened in duplicates of 12.5 μM.
(§4) In order to identify highly-selective cytotoxic inhibitors of hPSCs, the 696 cytotoxic inhibitors of hPSCs identified as described in Example 1 were counter-screened as described in the Materials and Methods section against other cell types, representative of all germ layers and developmental stages. Importantly, many of these cell types were differentiated from human ES or iPS cells. The screened cell types included ES-derived neural stem cells (NSCs), ES-derived mesenchymal stem cells (MSCs), ES-derived endodermal progenitor cells, ES-derived hepatocytes, iPS-derived cardiomyocytes, iPS-derived fibroblasts of origin (BJ fibroblasts), and three cancer cell lines: neuroblastoma (Kelly), cervical cancer (HeLa) and hepatocarcinoma (Huh7). The cell types and their relationship to stem cells are depicted schematically in FIG. 14.

[3] = test system: ES-derived neural stem cells; assay: CellTiter-Glo counter-screen, neural stem cells; details: Homo sapiens, Neural stem cell
Huh7 cells = assay: CellTiter-Glo counter-screen, Huh7; details: Homo sapiens, Huh-7, cancer cells
Experimental: The hepatocarcinoma cell line Huh-7 was cultured in a DMEM/F12 (1:1) medium, supplemented with 10% FBS, penicillin (50 U/ml) and streptomycin (50 μg/ml).
as §3, §4

BJ-fibroblasts = assay: CellTiter-Glo counter-screen, BJ-fibroblasts; details: Homo sapiens; for pEC50: 24 hours, differentiated cells
Experimental: (§5) The cervical carcinoma cell line HeLa, teratocarcinoma cell line NTERA-2, and immortalized BJ fibroblast cell line, were cultured in DMEM supplemented with 10% FBS, penicillin (50 U/ml) and streptomycin (50 μg/ml).
as §3, §4
In addition, the identified compounds were screened at 6 concentrations using the BJ-fibroblasts from which the iPS line BJ-iPS28 had been derived, and reliable EC50 values were thereby calculated for both the iPS cells and for their somatic cells of origin.

HeLa cells = assay: CellTiter-Glo counter-screen, HeLa; details: Homo sapiens, cancer cells
Experimental: as §5, §3, §4

[4] = CellTiter-Glo counter-screen, hepatocytes; details: human, human embryonic stem cell-derived hepatocytes (Cellartis), read-out: Inhibition (%) ES-derived hepatocytes
Experimental: Human embryonic stem cell-derived hepatocytes were obtained from Cellartis (Goteborg, Sweden), and handled according to the manufacturer's instructions;
as §3, §4

[5] = test system: CSES2-SO2/3 embryonic stem cells; assay: CellTiter-Glo luminescent cell viability screen, CSES2-SO2/3; details: Homo sapiens; for pEC50: 24 h; for inhibition at 20 µM: pluripotent stem cells
Experimental: as §1
The compounds identified as hits from the primary screen were retested at a concentration of 20 μM against three pluripotent stem cell lines (CSES2, H9 and CSES2-SO2/3) for confirmation screens.
as §3, §2

inhibition at 20 µM [4] [%]	Structure (SMILES)	pEC50 [1]	inhibition at 20 µM [1] [%]	inhibition at 20 µM [2] [%]	inhibition at 12.5 µM [3] [%]	inhibition at 20 µM (Huh7 cells) [%]	pEC50 (BJ-fibroblasts)	inhibition at 20 µM (BJ-fibroblasts) [%]	inhibition at 20 µM (HeLa cells) [%]	pEC50 [5]	inhibition at 20 µM [5] [%]
10.5	O=C(NCCc1ccc(O)cc1)c1ccc(N2CCCCC2)cc1 [PluriSIn #4]	6.12	74.8	14.1	15.5	12.1	< 4.30	-22.9	2.2	5.33	74.5
15.3	CC(=O)Oc1ccc(/C=C/c2ccc3c(c2)CCN3C)cc1 [PluriSIn #7]	5.67	89	6.8	92.8	11.2	< 4.30	-9.7	-3.6	5.56	95.4
6.1	C/C(=N\O)NNc1ccc(Cl)cc1 [PluriSIn #9]	5.47	92.3	24.7	28.9	10.4	< 4.30	-22.7	-0.7	5.34	89.2
3.6	CCCCCC(=O)NNc1ccc(Cl)cc1 [PluriSIn #10]	5.62	87.4	12.6	23.7	9.3	< 4.30	-20.1	3	5.60	95.2
-4.1	O=C(NN(C(=O)c1ccccc1)c1ccccc1)c1ccc(Cl)cc1 [PluriSIn #14]	5.46	81.7	3.9	18.4	11.5	< 4.30	-18.6	-2.3	5.26	90.1

The next lines start with the compound.

Structure (SMILES)	inhibition at 20 µM [4] [%]	pEC50 [1]	inhibition at 20 µM [1] [%]	inhibition at 20 µM [2] [%]	inhibition at 12.5 µM [3] [%]	inhibition at 20 µM (Huh7 cells) [%]	pEC50 (BJ-fibroblasts)	inhibition at 20 µM (BJ-fibroblasts) [%]	inhibition at 20 µM (HeLa cells) [%]	pEC50 [5]	inhibition at 20 µM [5] [%]
O=C(NNc1ccccc1)c1ccncc1 [PluriSIn #1, isonicotinic acid N′-phenylhydrazide]	16.2	5.62	85.4	15	18.2	5.8	< 4.30	-8.8	5.7	5.41	90.8
O=C(Nc1ccccc1)n1cc(F)c(=O)[nH]c1=O [PluriSIn #2]	13.2	5.16	56.8	4.4	53.6	-0.2	< 4.30	-8.3	-2.1	4.91	54.3
Nc1cc(N)cc(COc2ccc(-c3ccccc3)cc2)c1 [PluriSIn #3]	2.8	5.77	81.1	-2.9	90.4	-5.9	< 4.30	-25.4	-4.2	5.55	97.4
O=S(=O)(NNc1ccccc1)c1ccc2ccccc2c1 [PluriSIn #5]	0.3	5.82	87.9	3.1	60.9	3.6	< 4.30	-7.5	-0.6	5.49	92.3
Cc1ccc(NNC(=O)C(O)(c2ccccc2)c2cccs2)cc1 (stereo not shown) [PluriSIn #6, 2-hydroxy-2-(thiophen-2-yl)-2-phenylacetic acid 4-methyl-N′-phenylhydrazide]	-5.2	5.65	83.3	2.6	16.5	4.6	< 4.30	15.9	2.6	5.43	93.2
Cc1oc2ccccc2c1/C=N/Nc1ccccc1 [PluriSIn #8]	14.6	5.77	82.2	8.9	15	10.9	< 4.30	-10.3	14.3	5.43	92.7
CCOC(=O)CN1CC(=O)/C(=C\NNc2ccccc2)C1=O [PluriSIn #11]	-4.7	5.51	90.6	-5.8	17.2	7	< 4.30	-19.3	-0.7	5.44	92.5
CCN(CC)C(=O)C(=O)c1c(-c2ccccc2)[nH]c2c1sc1ccccc12 [PluriSIn #12]	-3.9	5.27	83.4	-3.3	9.9	-1	< 4.30	-8.4	15.2	5.22	92.9
O=C1C=CC=C1/C=C/C(=N\Nc1ccccc1)c1ccccc1 [PluriSIn #13]	13.4	5.82	94.4	22.9	29.7	11.8	< 4.30	-15.4	0	5.46	94.6
